Assay results as given in patent publication US9556437B2, “FAT1 gene in cancer and inflammation” (DEPARTMENT OF BIOTECHNOLOGY (DBT), priority 2012, dated 2017).

What was measured:
U87MG cells [1] = experiment: In vitro Scratch Assay of cell migration; type: cell-based, human
Method: FIGS. 14A to 14D: Effect of NS-398 and FAT1 knockdown simultaneously on Cell Migration by In-vitro Scratch Assay. The in vitro Scratch Assay was performed at 72 hours after culturing cells as follows: At Day 0, 5,000 U87MG cells are plated per well of a 96 well plate. […] (C) Assay of cell migration by the Modified Boyden Chamber Assay under conditions of normoxia and hypoxia. (D) Quantitation of data from (C).
The Scratch Assay is performed at 72 hours after treatment. A scratch is made on the culture surface using a sterile 10 μl tip and cells were allowed to grow. Images were captured after every 3 hrs to monitor the closure of the wound in the culture surface for next 24 hrs.

[2] = system: colon, esophageal and pancreatic carcinoma cell lines; settings: Tsujii 1998, Zimmermann 1999, Molina 1999; cited from earlier work
[3] = system: colorectal and lung carcinoma cell lines; settings: Elder 1997, Liu 1998; cited from earlier work
COX-2 promoter = COX-2 promoter luciferase assay; type: cell-based, human; settings: U87MG
Method: AP-1 and COX-2 Promoter Luciferase Assay: U87MG cells (40000 cells/well) were plated in 6-well plates in triplicate on day zero. On day 1, cells were transfected with siFAT1 and siControl. On day 2 cells were transiently transfected with 4×AP-1-luciferase reporter plasmids as described previously. Cells were transfected with 1 μg of AP-17× luciferase reporter plasmid, along with 50 ng of pRL-TK (Renilla luciferase) control plasmid using LIPOFECTAMINE2000 as the transfection reagent. After 48 hrs, the cells were lysed by 1× passive-lysis-buffer (Promega, Madison, Wis., USA) and assayed for luciferase activity as previously described. For COX-2 luciferase assay U87MG cells were transfected with siFAT1 and siControl on day 1 and after 4 hrs incubation were treated with 10 μM SR11302. On day2 cells were transiently transfected with COX-2 reporter plasmid and again treated with 10 μM SR11302. After 48 hrs, the cells were assayed for luciferase activity.

U87MG cells [4] = experiment: Toxicity of SR11302 to cells; type: cell-based, human; settings: 10 μM
Method: FIG. 11: Dose response curve of SR11302; U87MG cells were treated with increasing concentration of SR11302 from 0.1 μM to 10 μM.

dose response of COX-2 luciferase activity (COX-2 promoter; 0.1 μM to 10 μM) | decrease in COX-2 luciferase activity (COX-2 promoter; vs siControl+DMSO, SR11302 10 μM, 48 hrs) | SMILES | inhibition of cell migration (U87MG cells [1]; Scratch Assay at 72 hours after treatment) | effect on migration under hypoxic versus normoxic culture (U87MG cells [1]; hypoxic conditions) | migration ability of cells (U87MG cells [1]; scratch and modified Boyden chamber assays, normoxic or hypoxic conditions (FIG. 14)) | growth of carcinoma cell lines [2] | apoptosis [3] | proliferation [3] | toxicity to the cells (U87MG cells [4])
 |  | CS(=O)(=O)Nc1ccc([N+](=O)[O-])cc1OC1CCCCC1 [NS398] | about 70% | more pronounced | reduced | growth-inhibitory effects | induce apoptosis | inhibit proliferation | 
dose dependent decrease | 5 fold | CC1=C(/C=C/C(=C/C=C/C(C)=C/C(=O)O)c2ccc(C)cc2)C(C)(C)CCC1 [SR11302] |  |  |  |  |  |  | No toxicity
